From patent publication US11246924B2, “Alpha-helical peptide nanofibers as a self-adjuvanting vaccine platform” (Duke University, priority 2016, dated 2022)
Entries after “also recorded” stand apart in the source; their conditions may differ.

Legend:
[1] = system: dendritic cells (CD11c+MHCII+F4/80−); assay: Uptake of TAMRA labelled peptides by dendritic cells in vivo (flow cytometry of peritoneal lavage fluid); set-up: species or system C57BL/6 mice; settings: TAMRA labelled peptide, i.p. injection, peritoneal lavage 20 h after injection
Procedure: (§1) Antibodies and Flow Cytometry: Antibodies were purchased from eBioscience unless specified. Flow cytometry was performed using LSRII blue (BD). FlowJo (Tree Star Inc.) was used in the analysis of flow data. For analysis of cell recruitment to the peritoneal cavity, cells isolated from i.p. lavage fluid were stained and analyzed as described.
(§2) To examine whether the epitope-bearing nanofibers could be internalized by APCs, C57BL/6 mice were immunized via i.p. injection with 1×PBS, or PEPvIII or P-C peptides fluorescently labelled with TAMRA (FIG. 8). […] The peritoneal lavage fluid was collected 20 h after injections, to analyze for the percentage of TAMRA positive DCs (CD11c^+MHCII^+F4/80^−) and MΦ (CD11c^−F4/80^+) using flow cytometry (FIG. 18).

[2] = system: macrophages (CD11c−F4/80+); assay: Uptake of TAMRA labelled peptides by macrophages in vivo (flow cytometry of peritoneal lavage fluid); set-up: species or system C57BL/6 mice; settings: TAMRA labelled peptide, i.p. injection, peritoneal lavage 20 h after injection
Procedure: as §1, §2

[3] = system: PEPvIII epitope (EGFRvIII); assay: PEPvIII-specific IgG antibody titers in sera after subcutaneous immunization (ELISA); format: in vivo, C57BL/6 mice; settings: for PEPvIII-specific IgG antibody response: s.c. primary injection week 0 (2×10^−3 M PEPvIII epitope, 100 μL), half-dose boosts weeks 4 and 7, sera over 18 weeks
Procedure: Vaccine Preparation: To prepare PEPvIII-Coil29 peptide fibers solutions for immunization, the lyophilized peptides were first dissolved in 10×10^−3 M sterile acetate buffer (pH 4) at 8×10^−3 M and incubated overnight at […]. The peptide solutions were subsequently diluted to 2×10^−3 M in 1×PBS, and incubated 3 h at room temperature prior to immunization. For coassembled peptide fiber formation, PEPvIII-Coil29 and PADRE-Coil29 were weight out separately, and mixed on vortex for 5 mins before dissolved in 10×10^−3 M sterile acetate buffer (pH 4), and diluted in the same procedure as PEPvIII-Coil29 nanofiber preparation. To prepare CFA/IFA peptide emulsion for immunization, PEPvIII peptide was initially dissolved in 4×10^−3 M in sterile water, and equal volume of adjuvant solution was mixed in with peptide solution and vortexed for 45 min to bring the final concentration of peptide to 2×10^−3 M for injection.
Mice and Immunizations: Female 057B1/6 mice were purchased from Harlan laboratory and housed at the animal facility at the University of Chicago and Duke University. All procedures were approved by both the University of Chicago Institutional Animal Care and Use Committee (protocol 71-900) and the Duke Institutional Animal Care and Use Committee (protocol A314-15-12 19N). Mice (6-12 weeks old; age-matched within each experiment) were randomly assigned in groups of five for each condition based on previous findings that this size was sufficient to distinguish responding versus nonresponding groups. Anesthetized mice were immunized subcutaneously with the indicated solutions (2×50 μL at the shoulders) and boosted where indicated with half-doses (2×25 μL) after 4 weeks and 7 weeks. Sera were collected from the submandibular (cheek) vein for analysis via ELISA. Mice were sacrificed 7 d after the final immunization, and the cells from the draining lymph nodes (axillary, brachial, and inguinal) were collected.
ELISA for Serum Antibodies: Serum was analyzed for antigenspecific Ig (Anti-IgG (H+L), Jackson Immuno Research, Cat #115-035-003) or IgG (gamma-specific, #115-035-071) by ELISA, as previously described (Egelman, E. H., et al. Structure 2015, 23, 280-28). To detect E214-specifi c antibodies, the plate was coated with 5 μg/mL E214-ahx-C (provided by Merck) in PBS or with 5 μg/mL streptavidin (Sigma #85878) followed by 10 μg/mL E214-PEG-biotin in PBS. […]
Peptides were synthesized by solid phase peptide synthesis by methods known in the art. […] Antibody titers were determined using ELISA.
We subsequently investigated the immunogenicity of the Coil29 peptide platform. […] Sera were collected from all the groups at predesignated dates over 18 weeks, and analyzed for peptide-specific antibody titers via ELISA (FIG. 9). […]

splenocytes = assay: T-cell ELISPOT (IL-4, IFNγ) on splenocytes of immunized mice; format: cell-based, C57BL/6 mice
Procedure: T-Cell ELIspot: T-cell ELIspots were performed as described. Briefly, 0.25 million cells from the spleen were plated in each well of a 96-well ELIspot plate (Millipore, MSIPS4510), in 200 μL per well. The cells were then stimulated with peptide or left untreated as negative controls. […] Streptavidinalkaline phosphatase (3310-10) was purchased from Mabtech. Spots were developed using substrate Sigmafast BCIP/NBT (Sigma, B5655). Plates were imaged and enumerated using an ELISPOT reader (Cellular Technology, Ltd).
We further analyzed how the PADRE epitope dosing could impact the humoral response in the current platform (FIG. 10). Four groups of mice were immunized with Coil29 nanofibers formulated with different PADRE epitope concentrations ranging from 0 to 0.5×10^−3M in final concentration, and the PEPvIII-specific total IgG titers were monitored over 17 weeks (FIG. 10A). […] However, the difference in antibody response in relationship with PADRE dosing could possibly be caused by several reasons, including the use of a different B cell epitope. We are currently investigating the mechanism of this observation. It highlighted the significance in future application where the formulation of nanofibers should be fine-tuned for different epitopes induce optimal response. […]

SGSG-Coil29 peptide = assay: IgG antibody response against the carrier SGSG-Coil29 sequence (ELISA); format: in vivo, C57BL/6 mice; settings: boosts weeks 4 and 7
Procedure: Two boost containing half the primary immunization doses were given on week 4 and week 7 for both groups. Sera were collected to measure the IgG production against SGSG-Coil29 peptide using ELISA.
Antibody responses against the carrier (SGSG Coil29 sequence) were also measured by ELISA for both PEPvIII-Coil29 group and PEPvIII-Coil29/PADRE-Coil29 group (FIG. 4).
We subsequently investigated the immunogenicity of the Coil29 peptide platform. Four groups of C57BL/6 mice were immunized subcutaneously with same amount of epitope peptides (2×10^−3M of PEPvIII epitopes, 100 μL per mouse) on week 0, and boosted twice with half of the primary doses (2×10^−3M of PEPvIII epitopes, 50 μL per mouse) at weeks 4 and 7. Mice primed with an emulsion of PEPvIII with complete Fruend's adjuvant (CFA), and boosted with PEPvIII and incomplete Fruend's adjuvant (IFA) served as a positive control. Sera were collected from all the groups at predesignated dates over 18 weeks, and analyzed for peptide-specific antibody titers via ELISA (FIG. 9). […] Strikingly, the second boost at week 7 elevated the antibody titer nearly 100-fold, with the highest titer level reaching about 10^5 at week 9. […] The considerable difference in antibody response between P-C and P-C/P groups underlined the importance of the T cell epitope (PADRE) in promoting antibody responses with the Coil29 platform. […]

Row | Substance | percentage of TAMRA positive dendritic cells [1] | percentage of TAMRA positive macrophages [2] | PEPvIII-specific IgG antibody response [3] | concentration above which the ELISPOT response saturated (splenocytes; preliminary experiments) | PEPvIII-specific total IgG titers, PADRE dosing study ([3]; PADRE 0 or 0.05×10^−3 M final concentration, monitored over 17 weeks) | PEPvIII-specific IgG antibody response ([3]; listed as PEPvIII-Coil29) | IgG antibody response against SGSG-Coil29 (SGSG-Coil29 peptide) | IgG antibody response against SGSG-Coil29 (SGSG-Coil29 peptide; listed as PEPvIII-Coil29) | T cell IFNγ and IL4 response (ELISPOT) (splenocytes; splenocytes collected on week 18, stimulated with PADRE or PEPvIII peptide)
1 | NH2-LEEKKGNYVVTDH-Amide [PEPvIII, reference compound] | statistically indistinguishable from the 1×PBS negative control group | statistically indistinguishable from the 1×PBS negative control group | did not elicit antibody responses; also recorded: failed to elicit any antibody response |  |  |  |  |  | 
2 | NH2-aKXVAAVVTLKAa-Amide [PADRE, reference compound] |  |  |  | above 0.5×10^−6 M |  |  |  |  | 
3 | NH2-LEEKKGNYVVTDH SGSG QARILEADAEILRAYARILEAHAEILRAQ-Amide (H-LEEKKGNYVVTDHSGSGQARILEADAEILRAYARILEAHAEILRAQ-NH2) [P-C] |  |  | unable to raise a significant level of epitope-specific IgG antibody titer |  | negligible levels of IgG | very weak responses | gradually diminished to a negligible level after the total IgG titers peaked at week 9 | self-limiting, returning to baseline levels after 16 weeks | responded to neither PADRE peptide nor PEPvIII peptide
